Laboratory results taken from US20240376286A1, “DIHYDROXY COMPOUND MANUFACTURING METHOD AND RECYCLED RESIN MANUFACTURING METHOD” (MITSUBISHI GAS CHEMICAL COMPANY, INC., priority 2021, published 2024).

What was measured:
[1] = Solubility in toluene at 25° C.; type: physicochemical; details: solvent toluene
[2] = Solubility in methyl ethyl ketone (MEK) at 25° C.; type: physicochemical; details: solvent MEK

SMILES | solubility in toluene at 25° C. [1] | solubility in methyl ethyl ketone (MEK) at 25° C. [2]
OCCOc1ccc2ccccc2c1-c1c(OCCO)ccc2ccccc12 [BNE, 2,2′-bis(2-hydroxyethoxy)-1,1′-binaphthalene] | 0.1 g/(10 mL) | 0.75 g/(10 mL)
OCCOc1ccc(C2(c3ccc(OCCO)c(-c4ccccc4)c3)c3ccccc3-c3ccccc32)cc1-c1ccccc1 [BPPEF, 9,9-bis[4-(2-hydroxyethoxy)-3-phenylphenyl]fluorene] | 0.05 g/(10 mL) | 4.5 g/(10 mL)
OCCOc1ccc2cc(-c3ccccc3)ccc2c1-c1c(OCCO)ccc2cc(-c3ccccc3)ccc12 [DP, 2,2′-bis(2-hydroxyethoxy)-6,6′-diphenyl-1,1′-binaphthalene] | 0.3 g/(10 mL) | 0.3 g/(10 mL)
